Measured values as given in patent US9901592B2 (priority 2008, dated 2018).
≈ marks a conversion by molar mass, not a printed value. Like-named read-outs stand apart in the source and are kept apart here.

Assays:
S. pneumoniae [1] = assay type: cell-based
[2] = test system: viridans group streptococci (VGS); assay type: cell-based; details: VGS (51)
S. pneumoniae [3] = experiment: neutropenic mouse thigh infection; assay type: in vivo; details: PO
S. pneumoniae [4] = experiment: mouse subcutaneous abscess model; assay type: in vivo; details: for average log10 CFU/gram of abscess: S. pneumoniae 1629, 10 mg/Kg PO
Experimental: Example. Efficacy was evaluated in several infection models. […] PD50s were determined 24 hr post infection. CEM-101 was further evaluated in a subcutaneous abscess mouse model against S. pneumoniae. CD-1 female mice were infected via SC injection of bacteria mixed with cyclodextran beads. Two hr post infection, mice received a single oral dose of CEM 101 or control agents. At 48 hr post dose, mice were euthanized, abscesses aseptically removed and bacteria enumerated. CFU per abscess was determined and compared to the untreated control. […] 24 hr post treatment, the thighs were processed and CFU/gram of thigh determined.
Example. Mouse Subcutaneous Abscess. Bacteria were prepared from an overnight plate culture by re-suspending in saline and adjusting the suspension to a 0.1 OD at 625 nm of a 1:10 dilution. The adjusted bacterial suspension was mixed 1:2 with cyclodextran beads prepared as per package instructions. The right flanks of the mice were shaven and injected subcutaneously with 0.2 ml of the bacterial inoculum. Two hours post infection mice were treated via oral gavage with either test article or control drug. 48 hours post infection, mice were euthanized, abscesses aseptically removed, homogenized, serially diluted and plated on bacterial growth agar. After overnight incubation, colonies were counted and CFUs/gram of abscess were determined.
Example. The ability of CEM101 to reduce the microbial load in abscess infection model was also assessed against S. pneumoniae isolates.

H. influenzae ATCC 49247 = experiment: post-antibiotic effect (PAE) testing
S. pyogenes [5] = assay type: cell-based
S. pyogenes [6] = experiment: MIC of the strains of the mouse systemic infection model; assay type: cell-based; details: Streptococcus pyogenes

SMILES: CC[C@H]1OC(=O)[C@@](C)(F)C(=O)[C@H](C)[C@@H](OC2OC(C)CC(N(C)C)C2O)[C@@](C)(OC)C[C@@H](C)C(=O)[C@H](C)[C@H]2N(CCCCn3cc(-c4cccc(N)c4)nn3)C(=O)O[C@]12C (stereo partly shown) [CEM-101, 11-N-4-(3-aminophenyl)-[1,2,3]triazol-1-yl]-butyl}-5-desosaminyl-3-oxo-2-fluoro-erythronolide A,-11,12-cyclic carbamate]
- single step mutation frequency (S. pneumoniae [1]; strain 24 Macrolide-R [erm(B)], 2 × MIC): 1.8 × 10^−7
- single step mutation frequency (S. pneumoniae [1]; strain 24 Macrolide-R [erm(B)], 4 × MIC): <5.0 × 10^−9
- single step mutation frequency (S. pneumoniae [1]; strain 24 Macrolide-R [erm(B)], 8 × MIC): <5.0 × 10^−9
- single step mutation frequency (S. pneumoniae [1]; strain 1076 Macrolide-R [erm(B)&mef(A)], 2 × MIC): <2.5 × 10^−8
- single step mutation frequency (S. pneumoniae [1]; strain 1076 Macrolide-R [erm(B)&mef(A)], 4 × MIC): 7.5 × 10^−9
- single step mutation frequency (S. pneumoniae [1]; strain 1076 Macrolide-R [erm(B)&mef(A)], 8 × MIC): 2.0 × 10^−9
- single step mutation frequency (S. pneumoniae [1]; strain 1077 Macrolide-S, 2 × MIC): <9.1 × 10^−9
- single step mutation frequency (S. pneumoniae [1]; strain 1077 Macrolide-S, 4 × MIC): <9.1 × 10^−9
- single step mutation frequency (S. pneumoniae [1]; strain 1077 Macrolide-S, 8 × MIC): <9.1 × 10^−9
- single step mutation frequency (S. pneumoniae [1]; strain 1635 Macrolide-R [erm(A)], 2 × MIC): 1.6 × 10^−8
- single step mutation frequency (S. pneumoniae [1]; strain 1635 Macrolide-R [erm(A)], 4 × MIC): <2.0 × 10^−10
- single step mutation frequency (S. pneumoniae [1]; strain 1635 Macrolide-R [erm(A)], 8 × MIC): <2.0 × 10^−10
- single step mutation frequency (S. pneumoniae [1]; strain 2686 Macrolide-R [L4 mutation], 2 × MIC): <2.5 × 10^−9
- single step mutation frequency (S. pneumoniae [1]; strain 2686 Macrolide-R [L4 mutation], 4 × MIC): <2.5 × 10^−9
- single step mutation frequency (S. pneumoniae [1]; strain 2686 Macrolide-R [L4 mutation], 8 × MIC): <2.5 × 10^−9
- single step mutation frequency (S. pneumoniae [1]; strain 3009 Macrolide-R [23S rRNA mutation], 2 × MIC): <5.9 × 10^−9
- single step mutation frequency (S. pneumoniae [1]; strain 3009 Macrolide-R [23S rRNA mutation], 4 × MIC): <5.9 × 10^−9
- single step mutation frequency (S. pneumoniae [1]; strain 3009 Macrolide-R [23S rRNA mutation], 8 × MIC): <5.9 × 10^−9
- single step mutation frequency (S. pneumoniae [1]; strain 3665 Macrolide-R [mef(A)], 2 × MIC): 6.8 × 10^−7
- single step mutation frequency (S. pneumoniae [1]; strain 3665 Macrolide-R [mef(A)], 4 × MIC): 1.4 × 10^−7
- single step mutation frequency (S. pneumoniae [1]; strain 3665 Macrolide-R [mef(A)], 8 × MIC): <4.5 × 10^−10
- single step mutation frequency (S. pneumoniae [1]; strain 7127 Macrolide-S [S20N in L4, A105V in L22], 2 × MIC): <2.0 × 10^−10
- single step mutation frequency (S. pneumoniae [1]; strain 7127 Macrolide-S [S20N in L4, A105V in L22], 4 × MIC): <2.0 × 10^−10
- single step mutation frequency (S. pneumoniae [1]; strain 7127 Macrolide-S [S20N in L4, A105V in L22], 8 × MIC): <2.0 × 10^−10
- MIC50 [2]: ≤ 0.008 µg/mL
- MIC90 [2]: 0.06 µg/mL (≈ 0.071 µM)
- MIC Range [2]: ≦0.008-0.12 μg/ml
- Dose for 1 log10 Reduction from 24 hour controls (S. pneumoniae [3]; S. pneumoniae 1629, QD): 6.0 mg/Kg
- Dose for 3 log10 Reduction from 24 hour controls (S. pneumoniae [3]; S. pneumoniae 1629, QD): 8.0 mg/Kg
- 1 log kill (S. pneumoniae [3]; S. pneumoniae 6303, Q6): 23.0 mg/Kg
- EC50 (S. pneumoniae [3]; S. pneumoniae 6303, Q6): 16.7 mg/kg
- Static dose (S. pneumoniae [3]; S. pneumoniae 6303, Q6): 20.5 mg/kg
- 1 log kill (S. pneumoniae [3]; S. pneumoniae 6303, Q8): 23.0 mg/Kg
- Emax (S. pneumoniae [3]; S. pneumoniae 6303, Q8): 5.01 log10CFU/thigh
- Static dose (S. pneumoniae [3]; S. pneumoniae 6303, Q8): 12.1 mg/kg
- 1 log kill (S. pneumoniae [3]; S. pneumoniae 6303, Q12): 24.0 mg/Kg
- Static dose (S. pneumoniae [3]; S. pneumoniae 6303, Q12): 19.2 mg/kg
- Emax (S. pneumoniae [3]; S. pneumoniae 6303, Q24): 6.38 log10CFU/thigh
- Static dose (S. pneumoniae [3]; S. pneumoniae 6303, Q24): 8.2 mg/kg
- Dose for 1 log10 Reduction from 24 hour controls (S. pneumoniae [3]; S. pneumoniae 6303, QD): 1.2 mg/Kg
- Dose for 2 log10 Reduction from 24 hour controls (S. pneumoniae [3]; S. pneumoniae 6303, QD): 3.0 mg/Kg
- Dose for 3 log10 Reduction from 24 hour controls (S. pneumoniae [3]; S. pneumoniae 6303, QD): 5.0 mg/Kg
- average log10 CFU/gram of abscess (S. pneumoniae [4]; 24 hours): about 3 log10 CFU/gram
- average log10 CFU/gram of abscess (S. pneumoniae [4]; 48 hours): about 3 log10 CFU/gram
- log decrease of CFU from untreated mice (S. pneumoniae [4]; abscess, 10 mg/Kg QD dose): 4.2 log10
- average PAE (H. influenzae ATCC 49247; Gram-negative pathogens): 4.5 h
- PAE (H. influenzae ATCC 49247; H. influenzae ATCC 49247, 4X MIC, exposure 1 hour): 3.2 h
- single step mutation frequency (S. pyogenes [5]; strain 237 Macrolide-R [L4 mutation], 2 × MIC): <1.3 × 10^−10
- single step mutation frequency (S. pyogenes [5]; strain 237 Macrolide-R [L4 mutation], 4 × MIC): <1.3 × 10^−10
- single step mutation frequency (S. pyogenes [5]; strain 237 Macrolide-R [L4 mutation], 8 × MIC): <1.3 × 10^−10
- single step mutation frequency (S. pyogenes [5]; strain 2011 Macrolide-R [mef(A)], 2 × MIC): 3.9 × 10^−8
- single step mutation frequency (S. pyogenes [5]; strain 2011 Macrolide-R [mef(A)], 4 × MIC): <1.1 × 10^−10
- single step mutation frequency (S. pyogenes [5]; strain 2011 Macrolide-R [mef(A)], 8 × MIC): <1.1 × 10^−10
- single step mutation frequency (S. pyogenes [5]; strain 2094 Macrolide-R [erm(A)], 2 × MIC): 5.3 × 10^−8
- single step mutation frequency (S. pyogenes [5]; strain 2094 Macrolide-R [erm(A)], 4 × MIC): 2.1 × 10^−9
- single step mutation frequency (S. pyogenes [5]; strain 2094 Macrolide-R [erm(A)], 8 × MIC): <5.3 × 10^−10
- single step mutation frequency (S. pyogenes [5]; strain 2132 Macrolide-S, 2 × MIC): <1.0 × 10^−10
- single step mutation frequency (S. pyogenes [5]; strain 2132 Macrolide-S, 4 × MIC): <1.0 × 10^−10
- single step mutation frequency (S. pyogenes [5]; strain 2132 Macrolide-S, 8 × MIC): <1.0 × 10^−10
- single step mutation frequency (S. pyogenes [5]; strain 2368 Macrolide-R [erm(B)], 2 × MIC): <5.9 × 10^−11
- single step mutation frequency (S. pyogenes [5]; strain 2368 Macrolide-R [erm(B)], 4 × MIC): <5.9 × 10^−11
- single step mutation frequency (S. pyogenes [5]; strain 2368 Macrolide-R [erm(B)], 8 × MIC): <5.9 × 10^−11
- MIC (S. pyogenes [6]; S. pyogenes (erythromycin R)): 1 µg/mL
- MIC (S. pyogenes [6]; S. pyogenes (macrolide susceptible)): 0.015 µg/mL
